Five compounds from patent publication US9314966B2, “Bandseal for PEG-filled hard capsule” (QUALICAPS CO., LTD., priority 2007, dated 2016) can be followed below.

In general, solubility refers to how much of the substance goes into solution per volume.

Common to all, as to type: physicochemical
The nature of data set [1]: Solubility in PEG400 (naked-eye inspection). Particulars: for solubility: polyethylene glycol 400 (PEG400), organic solvent or mixture, thermodynamic from solid, read-out: Solubility in PEG400, Evaluation results. As to the method:
0.5 g each of the high-molecular compounds and plasticizers were placed into separate test tubes. 5 mL of PEG400 was added to each test tube. After stirring with a mixer, the resulting mixtures were inspected with the naked eye and the high-molecular compounds and plasticizers were evaluated for their solubility in PEG400.

A short description of data set [2]: Solubility in 10 wt. % aqueous PVA solution. Particulars: aqueous with cosolvent or surfactant or cyclodextrin, thermodynamic from solid; 0.5 g in 10 wt. % aqueous PVA (JP-05) solution; read-out: Solubility in the Aqueous PVA Solution, Evaluation result. The procedure:
(§1) Based on the results of Experimental Example 1, the candidates as raw materials for the band seal (see Table 2) were tested to research substances soluble in an aqueous solution of a PVA copolymer (POVACOAT Type F, product of Daido Kasei Corp., viscosity: 5.5 mPa·s, as measured at 25° C. using a 5% aqueous solution of the copolymer), and an aqueous solution of PVA (JP-05, product of Japan Vam & Poval Co., Ltd., average degree of polymerization: 500).
(§2) More specifically, 0.5 g each of the film-forming high-molecular compounds and plasticizers were placed into separate test tubes. A 10 wt. % aqueous solution of the PVA copolymer or a 10 wt. % aqueous solution of the PVA was added to each test tube. […] If some solids or liquid separation was observed, the mixture was evaluated as “not dissolved (insoluble)”.

A short description of data set [3]: Solubility in 10 wt. % aqueous PVA copolymer solution. Particulars: aqueous with cosolvent or surfactant or cyclodextrin, thermodynamic from solid; 0.5 g in 10 wt. % aqueous PVA copolymer (POVACOAT Type F) solution; read-out: Solubility in the Aqueous PVA Copolymer Solution, Evaluation result. As to the method:
as §1, §2

The mark [4] stands for this setting: 0.5 g in 5 mL of PEG400, stirred, naked eye.

As to `OCC(O)CO` [Glycerol], the solubility in data set [1] (setting [4]) was > 100 mg/mL. The same measure, in the same setting: the result for `CC(O)CO` (centres unmarked) [Propylene glycol] reads > 100 mg/mL. Turning to `OC[C@@H](O)[C@@H](O)[C@H](O)[C@@H](O)CO` [Sorbitol], the “Solubility in PEG (in words)” value in data set [1] (0.5 g in 5 mL of PEG400) is on record as “insoluble”. The figures for the solubility in data set [1] (setting [4]), in data set [2] and in data set [3] were < 100 mg/mL, > 100 mg/mL and > 100 mg/mL, respectively. Turning to `CC(=O)OCC(COC(C)=O)OC(C)=O` [Triacetin], the solubility in data set [1] (setting [4]) is > 100 mg/mL. Polysorbate 80: in data set [1] (setting [4]), the “Solubility in PEG400, Evaluation results” value was “x (x: dissolved)”.
